# Results taken from the supplement of paper PMC10307832.
# How the values were obtained:
# Test in all cases: relative viability (nuclei count vs DMSO), 5 days (fraction); higher = more cells survive
# LCLC-103H = system: LCLC-103H
# How it was run: (§1)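 Lung cancer cell lines were pin-tool dosed in 1536-well plates on the day after seeding, with either a lone drug or a fixed anchor-drug dose plus five library-drug doses (not always all listed) in √10 steps. Nuclei were counted on 4× images after 5 days. Relative viability is the ratio of treated-well to vehicle-well nuclei counts, with each value a median of duplicate plates.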
# NCI-H1703 = system: NCI-H1703
# How it was run: as §1
# IA-LM = system: IA-LM
# How it was run: as §1
# NCI-H520 = system: NCI-H520
# How it was run: as §1
# COR-L 105 = system: COR-L 105
# How it was run: as §1
# NCI-H1299 = system: NCI-H1299
# How it was run: as §1
# Calu-6 = system: Calu-6
# How it was run: as §1
# EBC-1 = system: EBC-1
# How it was run: as §1
# NCI-H1355 = system: NCI-H1355
# How it was run: as §1
# A549 = system: A549
# How it was run: as §1
# LK-2 = system: LK-2
# How it was run: as §1
smiles,measurement,setting,value
CCN(CC)CCCCNc1ncc2cc(-c3cc(OC)cc(OC)c3)c(NC(=O)NC(C)(C)C)nc2n1 + CC(C)C[C@H](NC(=O)[C@H](Cc1ccccc1)NC(=O)c1cnccn1)B(O)O [Bortezomib] (partner 0.002 µM),relative viability,LCLC-103H; first compound 0.01 µM,1.07
same,relative viability,LCLC-103H; first compound 0.03162 µM,1.06
same,relative viability,LCLC-103H; first compound 0.1 µM,1.09
same,relative viability,LCLC-103H; first compound 0.3162 µM,1.13
same,relative viability,LCLC-103H; first compound 1 µM,0.945
same,relative viability,NCI-H1703; first compound 0.01 µM,0.343
same,relative viability,NCI-H1703; first compound 0.1 µM,0.364
same,relative viability,NCI-H1703; first compound 0.3162 µM,0.215
same,relative viability,NCI-H1703; first compound 1 µM,0.236
same,relative viability,IA-LM; first compound 0.01 µM,0.868
same,relative viability,IA-LM; first compound 0.03162 µM,0.795
same,relative viability,IA-LM; first compound 0.1 µM,0.977
same,relative viability,IA-LM; first compound 0.3162 µM,0.557
same,relative viability,IA-LM; first compound 1 µM,0.776
same,relative viability,NCI-H520; first compound 0.01 µM,0.787
same,relative viability,NCI-H520; first compound 0.03162 µM,0.442
same,relative viability,NCI-H520; first compound 0.1 µM,0.938
same,relative viability,NCI-H520; first compound 0.3162 µM,0.461
same,relative viability,NCI-H520; first compound 1 µM,0.244
same,relative viability,COR-L 105; first compound 0.01 µM,0.691
same,relative viability,COR-L 105; first compound 0.03162 µM,0.824
same,relative viability,COR-L 105; first compound 0.1 µM,0.859
same,relative viability,COR-L 105; first compound 0.3162 µM,0.968
same,relative viability,COR-L 105; first compound 1 µM,0.732
same,relative viability,NCI-H1299; first compound 0.01 µM,1.11
same,relative viability,NCI-H1299; first compound 0.03162 µM,1.02
same,relative viability,NCI-H1299; first compound 0.1 µM,1.03
same,relative viability,NCI-H1299; first compound 0.3162 µM,0.979
same,relative viability,NCI-H1299; first compound 1 µM,0.954
same,relative viability,Calu-6; first compound 0.01 µM,1.01
same,relative viability,Calu-6; first compound 0.03162 µM,1.11
same,relative viability,Calu-6; first compound 0.1 µM,1.08
same,relative viability,Calu-6; first compound 0.3162 µM,1.11
same,relative viability,Calu-6; first compound 1 µM,0.996
same,relative viability,EBC-1; first compound 0.01 µM,0.554
same,relative viability,EBC-1; first compound 0.03162 µM,0.599
same,relative viability,EBC-1; first compound 0.1 µM,0.634
same,relative viability,EBC-1; first compound 0.3162 µM,0.565
same,relative viability,EBC-1; first compound 1 µM,0.458
same,relative viability,NCI-H1355; first compound 0.01 µM,1.23
same,relative viability,NCI-H1355; first compound 0.03162 µM,1.25
same,relative viability,NCI-H1355; first compound 0.1 µM,1.29
same,relative viability,NCI-H1355; first compound 0.3162 µM,1.41
same,relative viability,NCI-H1355; first compound 1 µM,1.13
O=c1cc(N2CCOCC2)oc2c(-c3cccc4c3sc3ccccc34)cccc12 + CC(C)C[C@H](NC(=O)[C@H](Cc1ccccc1)NC(=O)c1cnccn1)B(O)O [Bortezomib] (partner 0.002 µM),relative viability,LCLC-103H; first compound 0.01 µM,1.16
same,relative viability,LCLC-103H; first compound 0.03162 µM,1.04
same,relative viability,LCLC-103H; first compound 0.1 µM,0.954
same,relative viability,LCLC-103H; first compound 0.3162 µM,1.04
same,relative viability,LCLC-103H; first compound 1 µM,0.877
same,relative viability,NCI-H1703; first compound 0.01 µM,0.333
same,relative viability,NCI-H1703; first compound 0.03162 µM,0.274
same,relative viability,NCI-H1703; first compound 0.1 µM,0.356
same,relative viability,NCI-H1703; first compound 0.3162 µM,0.403
same,relative viability,NCI-H1703; first compound 1 µM,0.296
same,relative viability,IA-LM; first compound 0.01 µM,0.837
same,relative viability,IA-LM; first compound 0.03162 µM,0.904
same,relative viability,IA-LM; first compound 0.1 µM,0.784
same,relative viability,IA-LM; first compound 0.3162 µM,0.896
same,relative viability,IA-LM; first compound 1 µM,0.74
same,relative viability,NCI-H520; first compound 0.01 µM,0.66
same,relative viability,NCI-H520; first compound 0.03162 µM,0.446
same,relative viability,NCI-H520; first compound 0.1 µM,0.472
same,relative viability,NCI-H520; first compound 0.3162 µM,0.64
same,relative viability,NCI-H520; first compound 1 µM,0.752
same,relative viability,COR-L 105; first compound 0.01 µM,0.793
same,relative viability,COR-L 105; first compound 0.03162 µM,0.793
same,relative viability,COR-L 105; first compound 0.1 µM,0.769
same,relative viability,COR-L 105; first compound 0.3162 µM,0.895
same,relative viability,COR-L 105; first compound 1 µM,0.807
same,relative viability,NCI-H1299; first compound 0.01 µM,1.04
same,relative viability,NCI-H1299; first compound 0.03162 µM,1.01
same,relative viability,NCI-H1299; first compound 0.1 µM,0.984
same,relative viability,NCI-H1299; first compound 0.3162 µM,1.03
same,relative viability,NCI-H1299; first compound 1 µM,1.08
same,relative viability,Calu-6; first compound 0.01 µM,1.04
same,relative viability,Calu-6; first compound 0.03162 µM,1.05
same,relative viability,Calu-6; first compound 0.1 µM,1.01
same,relative viability,Calu-6; first compound 0.3162 µM,0.969
same,relative viability,Calu-6; first compound 1 µM,1.03
same,relative viability,EBC-1; first compound 0.01 µM,0.569
same,relative viability,EBC-1; first compound 0.03162 µM,0.538
same,relative viability,EBC-1; first compound 0.1 µM,0.505
same,relative viability,EBC-1; first compound 0.3162 µM,0.555
same,relative viability,EBC-1; first compound 1 µM,0.49
same,relative viability,NCI-H1355; first compound 0.01 µM,1.26
same,relative viability,NCI-H1355; first compound 0.03162 µM,1.15
same,relative viability,NCI-H1355; first compound 0.3162 µM,1.19
same,relative viability,NCI-H1355; first compound 1 µM,1.25
O=c1cc(-c2cccc3c2Sc2ccccc2S3)oc(N2CCOCC2)c1 + CC1(C)CCC(c2ccc(Cl)cc2)=C(CN2CCN(c3ccc(C(=O)NS(=O)(=O)c4ccc(N[C@H](CCN5CCOCC5)CSc5ccccc5)c(S(=O)(=O)C(F)(F)F)c4)cc3)CC2)C1 [Navitoclax] (partner 0.5 µM),relative viability,NCI-H1703; first compound 0.253 µM,1.22
same,relative viability,NCI-H1703; first compound 0.8 µM,1.35
same,relative viability,NCI-H1703; first compound 2.53 µM,1.05
same,relative viability,NCI-H1703; first compound 8 µM,1.05
same,relative viability,IA-LM; first compound 0.08 µM,0.847
same,relative viability,IA-LM; first compound 0.253 µM,1.06
same,relative viability,IA-LM; first compound 0.8 µM,0.815
same,relative viability,IA-LM; first compound 2.53 µM,0.856
same,relative viability,IA-LM; first compound 8 µM,0.963
same,relative viability,NCI-H520; first compound 0.08 µM,0.992
same,relative viability,NCI-H520; first compound 0.253 µM,1.1
same,relative viability,NCI-H520; first compound 0.8 µM,1.04
same,relative viability,NCI-H520; first compound 2.53 µM,0.993
same,relative viability,NCI-H520; first compound 8 µM,1.2
same,relative viability,COR-L 105; first compound 0.08 µM,0.649
same,relative viability,COR-L 105; first compound 0.253 µM,0.849
same,relative viability,COR-L 105; first compound 0.8 µM,0.678
same,relative viability,COR-L 105; first compound 2.53 µM,0.642
same,relative viability,COR-L 105; first compound 8 µM,0.993
same,relative viability,A549; first compound 0.08 µM,1.14
same,relative viability,A549; first compound 0.253 µM,1.51
same,relative viability,A549; first compound 0.8 µM,1.47
same,relative viability,A549; first compound 2.53 µM,1.13
same,relative viability,A549; first compound 8 µM,1.37
same,relative viability,NCI-H1299; first compound 0.08 µM,1.08
same,relative viability,NCI-H1299; first compound 0.253 µM,1.08
same,relative viability,NCI-H1299; first compound 0.8 µM,1.04
same,relative viability,NCI-H1299; first compound 2.53 µM,1.04
same,relative viability,NCI-H1299; first compound 8 µM,1.04
same,relative viability,Calu-6; first compound 0.08 µM,0.818
same,relative viability,Calu-6; first compound 0.253 µM,0.765
same,relative viability,Calu-6; first compound 0.8 µM,0.968
same,relative viability,Calu-6; first compound 2.53 µM,0.725
same,relative viability,Calu-6; first compound 8 µM,0.858
same,relative viability,LK-2; first compound 0.08 µM,0.861
same,relative viability,LK-2; first compound 0.253 µM,1.03
same,relative viability,LK-2; first compound 0.8 µM,0.992
same,relative viability,LK-2; first compound 2.53 µM,0.808
same,relative viability,LK-2; first compound 8 µM,1.43
same,relative viability,EBC-1; first compound 0.08 µM,0.401
same,relative viability,EBC-1; first compound 0.253 µM,0.376
same,relative viability,EBC-1; first compound 0.8 µM,0.401
same,relative viability,EBC-1; first compound 2.53 µM,0.362
same,relative viability,EBC-1; first compound 8 µM,0.335
same,relative viability,NCI-H1355; first compound 0.08 µM,0.982
same,relative viability,NCI-H1355; first compound 0.253 µM,1.06
same,relative viability,NCI-H1355; first compound 0.8 µM,0.847
same,relative viability,NCI-H1355; first compound 2.53 µM,0.942
same,relative viability,NCI-H1355; first compound 8 µM,0.685
